Type in all cases: in vivo
For test [1], the system named is Cotton aphid (Aphis gossypii, mixed life stages). The test is described as follows: Cotton aphid (Aphis gossypii, mixed life stages) foliar spray on infested cotton plants. To be noted: 120 h, after 5 days, read-out: mortality in comparison with untreated controls. The protocol: II.1 Cotton Aphid (Aphis gossypii, Mixed Life Stages)
(§1) The active compounds were formulated in cyclohexanone as a 10,000 ppm solution supplied in 1.3 ml ABgene® tubes. These tubes were inserted into an automated electrostatic sprayer equipped with an atomizing nozzle and they served as stock solutions for which lower dilutions were made in 50% acetone:50% water (v/v). A nonionic surfactant (Kinetic®) was included in the solution at a volume of 0.01% (v/v).
Cotton plants at the cotyledon stage were infested with aphids prior to treatment by placing a heavily infested leaf from the main aphid colony on top of each cotyledon. Aphids were allowed to transfer overnight to accomplish an infestation of 80-100 aphids per plant and the host leaf was removed. The infested plants were then sprayed by an automated electrostatic plant sprayer equipped with an atomizing spray nozzle. The plants were dried in the sprayer fume hood, removed from the sprayer, and then maintained in a growth room under fluorescent lighting in a 24-hr photoperiod at 25° C. and 20-40% relative humidity. Aphid mortality on the treated plants, relative to mortality on untreated control plants, was determined after 5 days.

The subject of test [2] is Green peach aphid (Myzus persicae, mixed life stages). The test can be described thus: Green peach aphid (Myzus persicae, mixed life stages) foliar spray on infested bell pepper plants. The settings on record: 120 h, after 5 days, read-out: mortality in comparison with untreated controls. The protocol:
II.2 Green Peach Aphid (Myzus persicae, Mixed Life Stages)
as §1
Bell pepper plants at the first true-leaf stage were infested prior to treatment by placing heavily infested leaves from the main colony on top of the treatment plants. Aphids were allowed to transfer overnight to accomplish an infestation of 30-50 aphids per plant and the host leaves were removed. The infested plants were then sprayed by an automated electrostatic plant sprayer equipped with an atomizing spray nozzle. The plants were dried in the sprayer fume hood, removed, and then maintained in a growth room under fluorescent lighting in a 24-hr photoperiod at 25° C. and 20-40% relative humidity. Aphid mortality on the treated plants, relative to mortality on untreated control plants, was determined after 5 days.

For test [3], the system named is Cowpea aphid (Aphis craccivora). The test is described as follows: Cowpea aphid (Aphis craccivora) spray on potted cowpea plants. The settings on record: assessed after 24, 72, and 120 hours, read-out: mortality in comparison with untreated controls. The protocol: II.3 Cowpea Aphid (Aphis craccivora)
The active compounds were formulated in 50:50 (vol:vol) acetone:water. The test solution was prepared at the day of use.
Potted cowpea plants colonized with 100-150 aphids of various stages were sprayed after the pest population had been recorded. Population reduction was assessed after 24, 72, and 120 hours.

The subject of test [4] is Vetch aphid (Megoura viciae). The test is described as follows: Vetch aphid (Megoura viciae) bean leaf disk microtiter plate test. To be noted: foliar, 144 h, test solution 2500 mg/L, bean leaf disks, 6 days. Here is the method:
II.4 Vetch Aphid (Megoura viciae)
The active compounds were formulated in 1:3 (vol:vol) DMSO:water with different concentrations of formulated compounds.
Bean leaf disks were placed into microtiterplates filled with 0.8% agar-agar and 2.5 ppm OPUS™. The leaf disks were sprayed with 2.5 μl of the test solution and 5 to 8 adult aphids were placed into the microtiterplates which were then closed and kept at 23±1° C. and 50±5% relative humidity under fluorescent light for 6 days. Mortality was assessed on the basis of vital, reproduced aphids. Aphid mortality and fecundity was then visually assessed.

Test [5] concerns green peach aphid (Myzus persicae). The test is described as follows: Green peach aphid (Myzus persicae) systemic test, artificial diet under membrane. The settings on record: 72 h, 2500 ppm in aphid diet, 3 days, read-out: mortality in comparison with untreated controls. The source says:
II.6 Activity Against Green Peach Aphid (Myzus persicae)
For evaluating control of green peach aphid (Myzus persicae) through systemic means the test unit consisted of 96-well-microtiter plates containing liquid artificial diet under an artificial membrane.
The compounds were formulated using a solution containing 75% v/v water and 25% v/v DMSO. Different concentrations of formulated compounds were pipetted into the aphid diet, using a custom built pipetter, at two replications. After application, 5 to 8 adult aphids were placed on the artificial membrane inside the microtiter plate wells. The aphids were then allowed to suck on the treated aphid diet and incubated at about 23+1° C. and about 50+5% relative humidity for 3 days. Aphid mortality and fecundity was then visually assessed.

Test [6] has as its system Silverleaf whitefly (Bemisia argentifolii, adult). The test is described as follows: Silverleaf whitefly (Bemisia argentifolii, adult) on sprayed cotton plants. To be noted: 72 h, spray on cotton plants, 3 days after treatment, read-out: mortality in comparison with untreated controls. The protocol: II.7 Silverleaf Whitefly (Bemisia argentifolii, Adult)
as §1
Cotton plants at the cotyledon stage (one plant per pot) were sprayed by an automated electrostatic plant sprayer equipped with an atomizing spray nozzle. The plants were dried in the sprayer fume hood and then removed from the sprayer. Each pot was placed into a plastic cup and 10 to 12 whitefly adults (approximately 3-5 days old) were introduced. The insects were collected using an aspirator and 0.6 cm, nontoxic Tygon® tubing (R-3603) connected to a barrier pipette tip. The tip, containing the collected insects, was then gently inserted into the soil containing the treated plant, allowing insects to crawl out of the tip to reach the foliage for feeding. Cups were covered with a reusable screened lid (150-micron mesh polyester screen PeCap from Tetko, Inc.). […] Mortality was assessed 3 days after treatment, compared to untreated control plants.

Where only a bound is given, the exact number is not on record here.

Broadly, the mortality is the percentage killed. Regarding `Cc1c(C(=O)/N=c2\ccn(C)nc2)cnn1CC(F)(F)F` [Compound 7, 5-methyl-1-(2,2,2-trifluoro-ethyl)-1H-pyrazole-4-carboxylic acid [1-methyl-1H-pyridazin-(4E)-ylidene]-amide], the mortality at 300 ppm is at least 75% in test [1], at least 75% in test [2], at least 90% in test [3] and at least 75% in test [6]. The compound further registered a mortality at 2500 µg/mL in test [4] of at least 90%. For the same compound, the mortality at 2500 ppm in test [5] turned out to be 100%.
